Measurements from ChEMBL document CHEMBL5696442, “Discovery of type II inhibitors of TGFβ-activated kinase 1 (TAK1) and mitogen-activated protein kinase kinase kinase kinase 2 (MAP4K2)” (J Med Chem, 2015).
Calls of active or inactive are those of the source. The rule behind the calls is not given here.

What was measured:
[1] = biological target: T1, Serine/threonine-protein kinase NLK (Homo sapiens) (UniProt Q9UBE8); experiment: Inhibition of NLK (unknown origin) at 1 uM by Ambit Kinomescan binding assay relative to control; values are per cent of control
T1 sequence (whole entry): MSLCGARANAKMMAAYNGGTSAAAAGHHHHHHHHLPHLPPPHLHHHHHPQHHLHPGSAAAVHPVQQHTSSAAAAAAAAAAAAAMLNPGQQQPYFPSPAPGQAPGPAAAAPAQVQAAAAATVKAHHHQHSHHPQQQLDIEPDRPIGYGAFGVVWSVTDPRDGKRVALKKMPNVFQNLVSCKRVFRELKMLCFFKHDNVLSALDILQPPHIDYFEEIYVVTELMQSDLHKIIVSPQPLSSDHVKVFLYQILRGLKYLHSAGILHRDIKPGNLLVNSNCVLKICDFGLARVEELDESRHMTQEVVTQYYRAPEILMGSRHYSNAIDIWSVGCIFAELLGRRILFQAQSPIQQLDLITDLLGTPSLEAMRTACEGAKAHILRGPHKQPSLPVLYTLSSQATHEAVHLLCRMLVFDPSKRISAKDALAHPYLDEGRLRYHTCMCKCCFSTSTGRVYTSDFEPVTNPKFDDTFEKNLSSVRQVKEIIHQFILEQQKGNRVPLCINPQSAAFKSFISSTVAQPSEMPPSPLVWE

[2] = biological target: Mitogen-activated protein kinase kinase kinase 9 (Homo sapiens) (UniProt P80192); experiment: Inhibition of MLK1 (unknown origin) at 1 uM by Ambit Kinomescan binding assay relative to control; values are per cent of control
Sequence of Mitogen-activated protein kinase kinase kinase 9 (Homo sapiens) (P80192 whole entry, looked up): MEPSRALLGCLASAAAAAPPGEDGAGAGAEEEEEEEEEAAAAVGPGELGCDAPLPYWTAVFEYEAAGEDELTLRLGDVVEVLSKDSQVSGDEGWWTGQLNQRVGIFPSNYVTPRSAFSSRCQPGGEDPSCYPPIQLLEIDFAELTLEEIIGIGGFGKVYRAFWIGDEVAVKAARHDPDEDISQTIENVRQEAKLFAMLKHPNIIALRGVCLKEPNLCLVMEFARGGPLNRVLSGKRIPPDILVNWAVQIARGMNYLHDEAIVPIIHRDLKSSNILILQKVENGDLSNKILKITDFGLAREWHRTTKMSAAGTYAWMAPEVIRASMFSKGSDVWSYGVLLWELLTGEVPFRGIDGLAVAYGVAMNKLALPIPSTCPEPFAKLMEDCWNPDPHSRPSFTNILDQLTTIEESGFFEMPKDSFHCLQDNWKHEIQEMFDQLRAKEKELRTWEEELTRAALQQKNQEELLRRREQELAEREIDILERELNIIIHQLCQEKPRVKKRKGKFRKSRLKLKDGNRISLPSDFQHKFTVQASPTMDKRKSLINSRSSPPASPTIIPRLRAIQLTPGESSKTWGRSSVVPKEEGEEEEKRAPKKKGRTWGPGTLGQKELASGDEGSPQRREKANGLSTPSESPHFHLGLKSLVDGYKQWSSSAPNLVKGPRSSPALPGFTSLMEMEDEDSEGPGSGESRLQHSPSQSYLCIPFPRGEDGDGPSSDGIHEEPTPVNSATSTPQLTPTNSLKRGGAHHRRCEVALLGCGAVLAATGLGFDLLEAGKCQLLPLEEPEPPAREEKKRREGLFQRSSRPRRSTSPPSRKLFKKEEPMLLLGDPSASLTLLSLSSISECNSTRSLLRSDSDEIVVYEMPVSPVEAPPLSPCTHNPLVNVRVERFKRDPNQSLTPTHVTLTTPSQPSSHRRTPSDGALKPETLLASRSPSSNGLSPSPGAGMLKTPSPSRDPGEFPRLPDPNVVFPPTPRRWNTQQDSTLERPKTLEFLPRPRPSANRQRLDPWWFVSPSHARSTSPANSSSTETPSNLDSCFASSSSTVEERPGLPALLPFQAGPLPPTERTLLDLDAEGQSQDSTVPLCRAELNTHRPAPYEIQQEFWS

[3] = biological target: Serine/threonine-protein kinase DCLK2 (Homo sapiens) (UniProt Q8N568); experiment: Inhibition of DCAMKL2 (unknown origin) at 10 uM by Ambit Kinomescan binding assay
Sequence of Serine/threonine-protein kinase DCLK2 (Homo sapiens) (Q8N568 whole entry): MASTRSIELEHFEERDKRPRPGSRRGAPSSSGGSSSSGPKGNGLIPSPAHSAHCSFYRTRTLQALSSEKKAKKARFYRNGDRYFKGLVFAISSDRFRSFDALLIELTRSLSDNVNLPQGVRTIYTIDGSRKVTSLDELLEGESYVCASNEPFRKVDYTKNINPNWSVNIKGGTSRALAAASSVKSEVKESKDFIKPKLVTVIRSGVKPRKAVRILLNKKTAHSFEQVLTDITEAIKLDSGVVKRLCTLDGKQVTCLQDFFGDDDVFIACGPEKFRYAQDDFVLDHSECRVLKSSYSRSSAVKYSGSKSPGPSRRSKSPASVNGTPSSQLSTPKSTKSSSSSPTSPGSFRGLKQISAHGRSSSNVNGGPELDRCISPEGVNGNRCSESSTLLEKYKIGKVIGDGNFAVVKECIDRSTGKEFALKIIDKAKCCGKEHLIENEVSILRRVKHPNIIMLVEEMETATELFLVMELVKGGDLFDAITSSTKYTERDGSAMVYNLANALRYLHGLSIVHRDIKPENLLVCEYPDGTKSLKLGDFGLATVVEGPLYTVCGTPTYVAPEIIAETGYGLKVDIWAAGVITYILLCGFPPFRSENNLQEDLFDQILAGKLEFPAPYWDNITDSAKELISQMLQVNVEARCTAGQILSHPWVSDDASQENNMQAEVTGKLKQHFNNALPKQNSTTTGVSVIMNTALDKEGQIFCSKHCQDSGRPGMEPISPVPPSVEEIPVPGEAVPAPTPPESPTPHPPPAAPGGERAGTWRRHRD

[4] = biological target: Serine/threonine-protein kinase MRCK gamma (Homo sapiens) (UniProt Q6DT37); experiment: Inhibition of DMPK2 (unknown origin) at 10 uM by Ambit Kinomescan binding assay
Sequence of Serine/threonine-protein kinase MRCK gamma (Homo sapiens) (Q6DT37 whole entry): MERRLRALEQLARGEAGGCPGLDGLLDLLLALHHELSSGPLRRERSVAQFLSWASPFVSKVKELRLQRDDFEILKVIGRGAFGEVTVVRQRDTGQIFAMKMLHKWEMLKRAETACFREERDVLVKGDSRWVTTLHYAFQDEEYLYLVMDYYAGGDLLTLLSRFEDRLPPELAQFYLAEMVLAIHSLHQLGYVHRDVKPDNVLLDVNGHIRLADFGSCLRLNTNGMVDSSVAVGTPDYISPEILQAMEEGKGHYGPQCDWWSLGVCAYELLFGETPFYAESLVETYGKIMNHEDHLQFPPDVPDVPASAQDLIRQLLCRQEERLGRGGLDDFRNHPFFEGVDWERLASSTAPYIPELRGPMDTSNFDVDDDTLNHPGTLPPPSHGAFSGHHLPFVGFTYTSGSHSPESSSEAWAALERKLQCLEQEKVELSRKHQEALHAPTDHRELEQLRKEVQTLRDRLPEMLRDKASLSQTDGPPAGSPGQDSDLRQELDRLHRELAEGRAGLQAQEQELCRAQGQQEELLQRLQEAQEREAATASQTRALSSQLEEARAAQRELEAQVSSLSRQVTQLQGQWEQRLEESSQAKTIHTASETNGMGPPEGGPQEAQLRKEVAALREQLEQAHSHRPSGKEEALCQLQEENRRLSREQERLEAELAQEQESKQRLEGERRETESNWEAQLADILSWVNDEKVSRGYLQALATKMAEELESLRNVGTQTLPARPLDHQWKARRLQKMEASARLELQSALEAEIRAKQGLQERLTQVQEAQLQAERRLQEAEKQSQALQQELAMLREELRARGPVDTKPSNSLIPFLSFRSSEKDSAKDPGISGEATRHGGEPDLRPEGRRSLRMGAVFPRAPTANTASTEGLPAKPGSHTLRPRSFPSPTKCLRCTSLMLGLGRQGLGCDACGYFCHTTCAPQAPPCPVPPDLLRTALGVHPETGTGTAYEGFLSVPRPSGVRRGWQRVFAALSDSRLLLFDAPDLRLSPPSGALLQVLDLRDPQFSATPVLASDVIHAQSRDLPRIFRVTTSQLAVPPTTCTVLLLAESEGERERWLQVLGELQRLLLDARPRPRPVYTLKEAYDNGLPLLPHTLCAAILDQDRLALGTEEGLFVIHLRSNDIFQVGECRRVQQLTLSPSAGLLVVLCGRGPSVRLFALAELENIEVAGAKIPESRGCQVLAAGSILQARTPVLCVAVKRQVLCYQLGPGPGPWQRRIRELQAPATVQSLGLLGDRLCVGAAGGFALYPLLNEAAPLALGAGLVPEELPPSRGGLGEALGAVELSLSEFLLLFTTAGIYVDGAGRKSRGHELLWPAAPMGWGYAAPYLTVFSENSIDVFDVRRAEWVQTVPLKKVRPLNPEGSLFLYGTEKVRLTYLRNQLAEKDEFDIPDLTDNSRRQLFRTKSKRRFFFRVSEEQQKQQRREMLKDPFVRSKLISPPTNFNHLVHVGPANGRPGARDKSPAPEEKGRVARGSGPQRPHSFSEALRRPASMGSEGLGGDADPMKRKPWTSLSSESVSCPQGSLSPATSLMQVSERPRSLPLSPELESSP

[5] = biological target: Tyrosine-protein kinase Fgr (Homo sapiens) (UniProt P09769); experiment: Inhibition of FGR (unknown origin) at 10 uM by Ambit Kinomescan binding assay relative to control
Sequence of Tyrosine-protein kinase Fgr (Homo sapiens) (P09769 2-529 limits assumed): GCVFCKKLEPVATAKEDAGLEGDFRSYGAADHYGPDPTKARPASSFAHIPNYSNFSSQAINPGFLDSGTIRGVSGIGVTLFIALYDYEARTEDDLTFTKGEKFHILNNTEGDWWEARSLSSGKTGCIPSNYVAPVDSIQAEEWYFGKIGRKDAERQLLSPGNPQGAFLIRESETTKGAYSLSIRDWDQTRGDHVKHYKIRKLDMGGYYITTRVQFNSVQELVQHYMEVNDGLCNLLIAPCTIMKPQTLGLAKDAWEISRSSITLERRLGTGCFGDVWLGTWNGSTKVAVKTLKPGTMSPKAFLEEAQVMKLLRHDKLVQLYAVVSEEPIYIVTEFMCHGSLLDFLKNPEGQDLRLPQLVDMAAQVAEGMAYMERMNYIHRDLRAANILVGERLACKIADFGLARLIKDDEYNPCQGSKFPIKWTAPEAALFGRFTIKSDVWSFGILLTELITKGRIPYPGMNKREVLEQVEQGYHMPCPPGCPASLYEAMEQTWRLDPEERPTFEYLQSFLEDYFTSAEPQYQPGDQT

[6] = biological target: T2, Serine/threonine-protein kinase 3 (Homo sapiens) (UniProt Q13188); experiment: Inhibition of MST2 (unknown origin) at 10 uM by Ambit Kinomescan binding assay
T2 sequence (whole entry): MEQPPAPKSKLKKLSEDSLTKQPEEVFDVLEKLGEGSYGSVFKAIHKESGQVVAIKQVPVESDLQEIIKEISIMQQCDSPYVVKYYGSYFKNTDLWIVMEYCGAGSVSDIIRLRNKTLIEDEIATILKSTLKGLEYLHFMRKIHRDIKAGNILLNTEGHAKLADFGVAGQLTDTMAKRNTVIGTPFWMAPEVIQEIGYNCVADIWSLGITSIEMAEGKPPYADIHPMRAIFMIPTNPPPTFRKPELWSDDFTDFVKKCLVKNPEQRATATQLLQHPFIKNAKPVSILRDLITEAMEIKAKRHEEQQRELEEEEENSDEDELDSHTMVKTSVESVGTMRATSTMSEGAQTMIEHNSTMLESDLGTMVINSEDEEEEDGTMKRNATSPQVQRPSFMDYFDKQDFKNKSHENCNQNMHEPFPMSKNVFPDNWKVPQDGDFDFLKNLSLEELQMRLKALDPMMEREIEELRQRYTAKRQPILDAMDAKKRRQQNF

[7] = biological target: T3, Mitogen-activated protein kinase kinase kinase 5 (Homo sapiens) (UniProt Q99683); experiment: Inhibition of MAP3K5 Lys1 labeling site harbouring IAIKEIPER in human A-375 cells at 0.05 uM by KiNativ Profiling analysis relative to control; type: cell-based
T3 sequence (whole entry): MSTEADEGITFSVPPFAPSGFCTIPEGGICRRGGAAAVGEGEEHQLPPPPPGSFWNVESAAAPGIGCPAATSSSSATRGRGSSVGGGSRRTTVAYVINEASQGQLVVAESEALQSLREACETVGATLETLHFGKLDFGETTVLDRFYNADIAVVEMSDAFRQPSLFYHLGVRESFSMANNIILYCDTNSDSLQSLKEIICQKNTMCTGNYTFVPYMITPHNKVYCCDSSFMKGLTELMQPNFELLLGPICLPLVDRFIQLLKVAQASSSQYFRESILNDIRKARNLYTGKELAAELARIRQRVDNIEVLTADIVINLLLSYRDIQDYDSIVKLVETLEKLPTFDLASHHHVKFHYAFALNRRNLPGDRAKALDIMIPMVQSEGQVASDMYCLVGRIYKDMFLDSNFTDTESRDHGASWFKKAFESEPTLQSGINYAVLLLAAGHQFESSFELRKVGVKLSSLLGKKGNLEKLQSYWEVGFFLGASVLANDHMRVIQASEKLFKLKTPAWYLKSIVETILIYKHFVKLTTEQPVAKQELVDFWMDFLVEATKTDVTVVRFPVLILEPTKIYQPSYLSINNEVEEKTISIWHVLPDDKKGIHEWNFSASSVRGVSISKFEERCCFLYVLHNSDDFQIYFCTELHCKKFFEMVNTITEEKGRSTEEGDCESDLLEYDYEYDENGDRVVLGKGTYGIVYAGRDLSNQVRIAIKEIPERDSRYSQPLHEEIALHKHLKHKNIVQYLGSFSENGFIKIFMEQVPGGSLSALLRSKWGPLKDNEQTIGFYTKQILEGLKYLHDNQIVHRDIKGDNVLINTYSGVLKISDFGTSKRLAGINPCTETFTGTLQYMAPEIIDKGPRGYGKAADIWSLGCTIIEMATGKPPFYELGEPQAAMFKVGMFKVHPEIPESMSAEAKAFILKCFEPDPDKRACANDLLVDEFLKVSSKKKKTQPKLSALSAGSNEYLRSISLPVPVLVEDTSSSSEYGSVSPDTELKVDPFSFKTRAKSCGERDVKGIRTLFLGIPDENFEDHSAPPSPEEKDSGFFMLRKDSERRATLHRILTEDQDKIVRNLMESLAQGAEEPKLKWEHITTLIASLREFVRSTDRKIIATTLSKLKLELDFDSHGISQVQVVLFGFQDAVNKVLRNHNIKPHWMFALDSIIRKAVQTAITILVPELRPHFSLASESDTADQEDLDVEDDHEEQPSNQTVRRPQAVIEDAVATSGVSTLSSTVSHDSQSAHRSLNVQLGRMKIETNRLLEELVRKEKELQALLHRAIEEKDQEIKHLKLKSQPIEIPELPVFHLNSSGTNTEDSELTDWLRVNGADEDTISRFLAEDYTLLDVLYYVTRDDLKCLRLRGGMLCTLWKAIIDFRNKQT

[8] = biological target: Tyrosine-protein kinase TXK (Homo sapiens) (UniProt P42681); experiment: Inhibition of TXK (unknown origin) at 10 uM by Ambit Kinomescan binding assay relative to control; values are per cent of control
Sequence of Tyrosine-protein kinase TXK (Homo sapiens) (P42681 whole entry): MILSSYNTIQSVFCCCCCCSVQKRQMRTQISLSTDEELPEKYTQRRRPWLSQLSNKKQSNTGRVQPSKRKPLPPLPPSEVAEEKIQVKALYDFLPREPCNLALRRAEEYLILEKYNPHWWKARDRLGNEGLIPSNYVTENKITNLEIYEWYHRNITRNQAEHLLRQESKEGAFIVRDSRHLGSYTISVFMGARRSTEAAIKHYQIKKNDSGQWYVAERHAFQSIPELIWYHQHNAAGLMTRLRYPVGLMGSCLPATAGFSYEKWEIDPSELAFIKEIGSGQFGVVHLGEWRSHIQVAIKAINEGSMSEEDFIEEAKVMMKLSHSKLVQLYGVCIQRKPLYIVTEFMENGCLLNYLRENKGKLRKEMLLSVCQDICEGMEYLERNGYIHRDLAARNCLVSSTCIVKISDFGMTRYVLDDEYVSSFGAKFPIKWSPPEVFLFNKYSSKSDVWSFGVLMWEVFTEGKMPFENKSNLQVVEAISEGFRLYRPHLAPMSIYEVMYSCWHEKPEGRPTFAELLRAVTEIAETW

Compound | residual activity [1] [%] | residual activity [2] [%] | inhibition [3] | inhibition [4] | inhibition [5] [%] | inhibition [6] | inhibition [7] [%] | residual activity [8] [%]
CCN1CCN(Cc2ccc(NC(=O)c3ccc(C)c(/C=C/c4cnc5[nH]ccc5c4OC)c3)cc2C(F)(F)F)CC1 | 18 | 4.7 | – | – | – | – | – | –
CCN1CCN(Cc2ccc(NC(=O)c3ccc(C)c(Oc4ccnc5[nH]ccc45)c3)cc2C(F)(F)F)CC1 | – | – | inactive | inactive | 1.2 | inactive | 10.8 | 12
